Results from patent publication US6159940A, “Method for modulating hemopoiesis” (Immunotech Developments Inc., priority 1999, dated 2000).

Columns and labels:
[1] = tested on: lymphocyte subpopulations in peripheral blood; assay: Clinical study: hemogram and immune phenotyping in patients with chronic lymphoid leukosis; assay type: in vivo
Excerpt: The study was continued in groups of patients with immune cytopenias, multiple myeloma, chronic lymphoid leukosis, lymphocytic lymphomas, lymphosarcomas (55 patients). Special attention was paid to the group of patients with P-cellular lymphoid leukosis. The peculiarity of the leukemic B-lymphocyte clone and its relatively vast representation in the peripheral blood of patients with a pronounced secondary immune deficiency makes B-cellular chronic Lymphoid leukosis a unique model for clinical studies of the effect of an immunomodulator.
Immune phenotyping is the most reliable method to determine the changes of ratios of immunocompetent cells in the peripheral blood and lymphocyte-containing organs. The method allows detection of subpopulations by the presence of cellular differentiating antigen structures on lymphocyte surface. For more trustworthy results, some patients were examined using a flow-type cytoflourimeter and monoclonal antibodies. Taking into account the contingent of the patients, the main surface structures to be examined were the following: CD45++CD14-, CD45+CD14-, CD45+CD14+, CD3+CD19-, CD3-CD19+, CD4+CD8-, CD4-CD8+, CD3+HLA- DR+, CD3+CD16,56+, CD34+, CDS+.
The dynamics of CD4+CD8- and CD4-CD8+ (T-helpers and T-suppressers) and the dynamics of other necessary CD-markers were determined in the course of treatment with H-Ile-Glu-Trp-OH. A special attention was paid to CD45++CD14- and CD45+CD14 as they characterize the proportion between normal and leukemic lymphocytes in chronic lymphoid leukosis and illustrate the influence of the immunoactive peptide on the proportion. These peculiarities connected with the characteristics of the disease allow investigation of the molecular mechanism of its genesis. In the case of an immune cytopenia most important are the quantitative ratios of CD45++CD14- and CD45+CD14- to CD4-CD8+, their reliable values can be obtained with the help of a cytofluorimeter.
One ml daily, intranasally, once or twice in divided doses, for 5 days. The course was repeated after a 3-week interval. To those patients who received a cytostatic mono- or polychemotherapy, H-Ile-Glu-Trp-OH was administered from the first day of the break in the cytostatic treatment.

tumor cells EL-4 = assay: Thymoma EL-4 cells incubated with peptide and heated, transplanted to mice: tumor size; assay type: in vivo, C57B1 mice; details: for Tumor size: EL-4, 13th day
Description: Incubation of the tumor cells with the tested drugs were performed the same way as described above in the experiments with OU. After 18-hour incubation, the cells were washed in the medium RPMI, and then resuspended in the concentration of 5 ml/1 ml in plastic test tubes of total volume of 2 ml each. Then the cells were heated for 1 hour at 43 degrees Celsius, and transplanted under the back skin of the mice C57B1. The growth of the tumor was examined the same way as described above.

[2] = Patient 0., * % of cells in mixed population of CD45++CD14- and CD45+CD14-
[3] = Patient S., * % of cells in the CD45+CD14- subpopulation

H-Ile-Glu-Trp-OH
% of Cells after H-Ile-Glu-Trp-OH Treatment, CD45++CD14- lymphocytes ([1]; Patient 0.): 28% | % of Cells after H-Ile-Glu-Trp-OH Treatment, CD45+CD14+ monocytes ([1]; Patient 0.): 3.6% | % of Cells after H-Ile-Glu-Trp-OH Treatment, CD45+CD14- granulocytes ([1]; Patient 0.): 63.8% | Absolute Count after treatment, CD45++CD14- lymphocytes ([1]; Patient 0.): 5.8 bln/l | number of cells with CD45++CD14- markers after treatment ([1]; Patient 0.): grew three times | Lymphocytes absolute after treatment course ([1]; Patient 0. (before: 11.2)): 15.4 blnd | leukocytes after treatment course ([1]; Patient 0. (before: 17.3)): 20.8 blnd | Lymphocytes after treatment course ([1]; Patient 0. (before: 65)): 74% | % of Cells after H-Ile-Glu-Trp-OH Treatment, CD4+CD8- T-helpers [1, 2]: 8.2% | % of Cells after H-Ile-Glu-Trp-OH Treatment, CD4-CD8+ T-suppressers [1, 2]: 8.1% | CD4+/CD8+ ratio after H-Ile-Glu-Trp-OH Treatment ([1]; Patient 0., * mixed population of CD45++CD14- and CD45+CD14-): 1.0 | % of Cells after H-Ile-Glu-Trp-OH Treatment, CD45++CD14- lymphocytes ([1]; Patient B.): 9.5% | % of Cells after H-Ile-Glu-Trp-OH Treatment, CD45+CD14+ monocytes ([1]; Patient B.): 2.1% | % of Cells after H-Ile-Glu-Trp-OH Treatment, CD45+CD14- granulocytes ([1]; Patient B.): 86.4% | Absolute Count after treatment, CD45++CD14- lymphocytes ([1]; Patient B.): 2.52 bln/l | Lymphocytes absolute after treatment ([1]; Patient B. (before: 18.7)): 21.8 bln/1 | leukocytes after treatment ([1]; Patient B. (before: 23,0)): 26.6 bin/1 | Lymphocytes after treatment ([1]; Patient B. (before: 85)): 82% | % of Cells after H-Ile-Glu-Trp-OH Treatment, CD3+CD19- T-lymphocytes ([1]; Patient B., marked *): 10.6% | % of Cells after H-Ile-Glu-Trp-OH Treatment, CD3+HLA-DR+ activated T-lymphoc. ([1]; Patient B., marked *): 1.31% | % of Cells after H-Ile-Glu-Trp-OH Treatment, CD3-CD19+ B-lymphocytes ([1]; Patient B., marked *): 85.3% | % of Cells after H-Ile-Glu-Trp-OH Treatment, CD4+CD8- T-helpers ([1]; Patient B., marked *): 6.4% | % of Cells after H-Ile-Glu-Trp-OH Treatment, CD4-CD8+ T-suppressers ([1]; Patient B., marked *): 3.8% | CD4+/CD8+ ratio after H-Ile-Glu-Trp-OH Treatment ([1]; Patient B., marked *): 1.7 | % of Cells after H-Ile-Glu-Trp-OH Treatment, CD3+CD19- T-lymphocytes ([1]; Patient M.): 35.6% | % of Cells after H-Ile-Glu-Trp-OH Treatment, CD3-CD19+ B-lymphocytes ([1]; Patient M.): 61.2% | % of Cells after H-Ile-Glu-Trp-OH Treatment, CD4+CD8- T-helpers ([1]; Patient M.): 11.6% | % of Cells after H-Ile-Glu-Trp-OH Treatment, CD4-CD8+ T-suppressers ([1]; Patient M.): 30.6% | % of Cells after H-Ile-Glu-Trp-OH Treatment, CD45++CD14- lymphocytes ([1]; Patient M.): 43.2% | % of Cells after H-Ile-Glu-Trp-OH Treatment, CD45+CD14+ monocytes ([1]; Patient M.): 4.5% | % of Cells after H-Ile-Glu-Trp-OH Treatment, CD45+CD14- granulocytes ([1]; Patient M.): 47.7% | Absolute Count after treatment, CD45++CD14- lymphocytes ([1]; Patient M.): 3.715 bln/l | CD4+/CD8+ ratio after H-Ile-Glu-Trp-OH Treatment ([1]; Patient M.): 0.4 | Lymphocytes absolute after treatment course ([1]; Patient M. (before: 3.24)): 3.62 bln/1 | leukocytes after treatment course ([1]; Patient M. (before: 7.9)): 8.6 blnA | Lymphocytes after treatment course ([1]; Patient M. (before: 41)): 42% | % of Cells after H-Ile-Glu-Trp-OH Treatment, CD3+CD19- T-lymphocytes ([1]; Patient S.): 52.0% | % of Cells after H-Ile-Glu-Trp-OH Treatment, CD3+HLA-DR+ activated T-lymphoc. ([1]; Patient S.): 16.0% | % of Cells after H-Ile-Glu-Trp-OH Treatment, CD3-CD19+ B-lymphocytes ([1]; Patient S.): 40.0% | % of Cells after H-Ile-Glu-Trp-OH Treatment, CD4+CD8- T-helpers ([1]; Patient S.): 27.1% | % of Cells after H-Ile-Glu-Trp-OH Treatment, CD4-CD8+ T-suppressers ([1]; Patient S.): 36.5% | % of Cells after H-Ile-Glu-Trp-OH Treatment, CD45++CD14- lymphocytes ([1]; Patient S.): 13.5% | % of Cells after H-Ile-Glu-Trp-OH Treatment, CD45+CD14+ monocytes ([1]; Patient S.): 0.8% | % of Cells after H-Ile-Glu-Trp-OH Treatment, CD45+CD14- granulocytes ([1]; Patient S.): 78.0% | Absolute Count after treatment, CD45++CD14- lymphocytes ([1]; Patient S.): 9.112 bln/l | CD4+/CD8+ ratio after H-Ile-Glu-Trp-OH Treatment ([1]; Patient S.): 0.7 | Lymphocytes absolute after treatment course ([1]; Patient S. (before: 48.04)): 58.06 bln/1 | leukocytes after treatment course ([1]; Patient S. (before: 57.2)): 67.5 bin/1 | Lymphocytes after treatment course ([1]; Patient S. (before: 84)): 86% | count of lymphocytes belonging to the population of conventionally normal lymphocytes ([1]; Patient S., after the treatment): doubled | % of Cells after H-Ile-Glu-Trp-OH Treatment, CD3+CD19- T-lymphocytes [1, 3]: 2.6% | % of Cells after H-Ile-Glu-Trp-OH Treatment, CD3+HLA-DR+ activated T-lymphoc. [1, 3]: 0.5% | % of Cells after H-Ile-Glu-Trp-OH Treatment, CD3-CD19+ B-lymphocytes [1, 3]: 96.9% | % of Cells after H-Ile-Glu-Trp-OH Treatment, CD4+CD8- T-helpers [1, 3]: 1.6% | % of Cells after H-Ile-Glu-Trp-OH Treatment, CD4-CD8+ T-suppressers [1, 3]: 1.9% | CD4+/CD8+ ratio after H-Ile-Glu-Trp-OH Treatment ([1]; Patient S., * in the CD45+CD14- subpopulation): 0.5 | Tumor size (tumor cells EL-4; + Heating (1 hour at 43 degrees Celsius)): No Tumor | Tumor size (tumor cells EL-4; no heating): 188.7 mm squared | tumor formation (tumor cells EL-4; in vitro treatment followed by heating, 21st day): no tumor formation was observed
